Biological target: Mycobacterium thermoresistible (Mtr) LpqY (Mycolicibacterium thermoresistibile, UniProt G7CES0)
Format: binding
Details: compound 100 μM, LpqY 500 nM, 10% DMSO, duplicate

Mycobacterium thermoresistible (Mtr) LpqY, sequence (G7CES0 29-471): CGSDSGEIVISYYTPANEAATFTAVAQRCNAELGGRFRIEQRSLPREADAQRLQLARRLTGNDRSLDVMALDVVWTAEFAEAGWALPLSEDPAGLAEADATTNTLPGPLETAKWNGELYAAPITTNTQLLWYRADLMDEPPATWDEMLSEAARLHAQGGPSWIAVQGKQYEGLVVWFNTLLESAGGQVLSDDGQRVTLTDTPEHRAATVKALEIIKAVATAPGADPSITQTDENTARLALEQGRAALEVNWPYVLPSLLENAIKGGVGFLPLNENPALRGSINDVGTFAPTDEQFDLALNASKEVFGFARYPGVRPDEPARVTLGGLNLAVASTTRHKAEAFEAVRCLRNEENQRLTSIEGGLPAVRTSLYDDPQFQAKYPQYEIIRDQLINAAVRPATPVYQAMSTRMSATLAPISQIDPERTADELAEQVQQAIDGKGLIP

| Structure (SMILES) | Screen signal/noise ratio (MST S/N) |
| --- | --- |
| COc1cc(C2=NCCN2)ccc1-c1cn(-c2cccc(C3=NCCN3)c2)nn1 [MMV688407, 4-[4-(4,5-dihydro-1H-imidazol-2-yl)-2-methoxyphenyl]-1-[3-(4,5-dihydro-1H-imidazol-2-yl)phenyl]triazole] | 8.0 |

Same assay, conditions: single dose MST screen against LpqY

| Structure (SMILES) | Pathogen Box screen signal/noise ratio |
| --- | --- |
| CCc1nc2ccc(Cl)cn2c1C(=O)NCc1ccc(N2CCC(c3ccc(OC(F)(F)F)cc3)CC2)cc1 [MMV687696] | 1.0 |
| O=C(NCc1cc(Cl)cc(Cl)c1)c1c(C(F)(F)F)nc2ccccn12 [MMV687699] | 0.8 |
| Nc1ncnc2c1ncn2[C@@H]1O[C@H](COS(=O)(=O)NC(=O)c2ccccc2O)[C@@H](O)[C@H]1O [MMV687700] | 1.1 |
| COc1cccc(-c2nc3c(N4CCCC4)cccc3n2CC2CCCN2)n1 (centres unmarked) [MMV687703] | 1.3 |
| c1ccc(Oc2ccc(-c3cc(N4CCNCC4)[nH]n3)cc2)cc1 [MMV687706] | -0.0238 |
| O=C1O[C@@H](CO)CN1c1cc(F)c(C2=CCN(Cc3ccccc3)CC2)c(F)c1 [MMV687729] | 1.5 |
| CCCCOC(=O)Nc1cc2nc(C3CCCCC3)[nH]c2cc1N1CCCC1 [MMV687730] | 1.3 |
| Cc1cc(OCC(=O)NCc2ccccc2)c2cc(Br)ccc2n1 [MMV687747] | 0.856 |
| c1ccc(C[C@@H]2CN(c3nccc(Oc4ccc(-n5ccnc5)cc4)n3)CCN2)cc1 [MMV687749] | 0.0357 |
| c1ccc(Oc2ccc(-c3cc(C4CCOCC4)[nH]n3)cc2)cc1 [MMV687762] | 0.6 |
| Cc1cnc(N2CCN[C@@H](Cc3ccccc3)C2)nc1Oc1ccc(-n2ccnc2)cc1 [MMV687765] | 2.2 |
| Cc1cc(C2=NOC(c3cc(Cl)c(F)c(Cl)c3)(C(F)(F)F)C2)ccc1C(=O)NCc1ccc2c(c1)C(C)(C)OB2O (centres unmarked) [MMV687776] | 1.6 |
| CC1(C)Cc2c(c(N3CCOCC3)nc3snc(Br)c23)CO1 [MMV687794] | 0.0714 |
| NCCC(O)C(=O)N[C@@H]1C[C@H](N)[C@@H](OC2O[C@H](CN)[C@@H](O)[C@H](O)[C@H]2O)[C@H](O)C1OC1O[C@H](CO)[C@@H](O)[C@H](N)[C@H]1O (some centres unmarked) [MMV687796] | 1.2 |
| C[C@H]1COc2c(N3CCN(C)CC3)c(F)cc3c(=O)c(C(=O)O)cn1c23 [MMV687798] | 0.9 |
| CC(C)N=c1cc2n(-c3ccc(Cl)cc3)c3ccccc3nc-2cc1Nc1ccc(Cl)cc1 [MMV687800] | 0.6 |
| CC[C@H](CO)NCCN[C@H](CC)CO [MMV687801] | 1.5 |
| CC(=O)NC[C@@H]1CN(c2ccc(N3CCOCC3)c(F)c2)C(=O)O1 [MMV687803] | 2.0 |
| O=C(Nc1ccc(C(F)(F)F)c(C(F)(F)F)c1)c1cc(Cl)ccc1O [MMV687807] | 0.5 |
| CN1CCN(CCCOc2ncc(Nc3ncc(-c4ccc(C(F)(F)F)c(F)c4)nc3C(N)=O)cn2)CC1 [MMV687812] | 4.1 |
| O=C1O[C@@H](COc2ccon2)CN1c1cc(F)c(C2=CCN(Cc3ccccc3)CC2)c(F)c1 [MMV687813] | 1.0 |
| Cc1cccc(-c2nc(Nc3ccncn3)c3sccc3n2)n1 [MMV688122] | 1.3 |
| CCc1ccc(S(=O)(=O)Nc2cc(CN3CCN(CCC(C)C)CC3)ccc2C)cc1 [MMV688124] | 0.85 |
| CCCc1ccc(S(=O)(=O)Nc2ccc(CN3CCN(CC4CC4)CC3)cc2)cc1 [MMV688125] | 0.6 |
| c1ccc(Oc2ccc(-c3cncc(-c4ccc5[nH]ccc5c4)n3)cc2)cc1 [MMV688178] | 1.0 |

| Structure (SMILES) | Pathogen Box screen signal/noise ratio |
| --- | --- |
| N=C(N)Nc1ccc(-c2ccc(-c3ccc(NC(=N)N)cc3Cl)o2)c(Cl)c1 [MMV688179] | 2.0 |
| Cc1nn(C)c(C)c1NS(=O)(=O)c1c(Cl)cc(-c2ccnc(N3CCNCC3)c2)cc1Cl [MMV688180] | 0.15 |
| CC1(COc2ccc(N3CCC(Oc4ccc(OC(F)(F)F)cc4)CC3)cc2)Cn2cc([N+](=O)[O-])nc2O1 (centres unmarked) [MMV688262] | 0.232 |
| COc1ccc(-c2cnc3cnc(-c4cccc(OC(C)C)c4)cn23)cc1 [MMV688270] | 0.0179 |
| N=C(N)Nc1ccc(-c2ccc(-c3ccc(N=C(N)N)c(Cl)c3)o2)cc1Cl [MMV688271] | 2.0 |
| Nc1ccc2ncnc(Nc3ccc(OCc4cccc(F)c4)c(Cl)c3)c2c1 [MMV688273] | 0.8 |
| O=C(CN1CCOCC1)Nc1ccc2ncnc(Nc3ccc(OCc4cccc(F)c4)c(Cl)c3)c2c1 [MMV688274] | 1.0 |
| CC1=Nc2ccc(Cl)cc2C(O)(c2ccc(C)cc2)N1CCN1CCCCC1 (centres unmarked) [MMV688279] | 0.8 |
| CN1CCN(S(=O)(=O)c2ccc(-c3ccc4c(Nc5ncc(Cl)cn5)ccnc4c3)cc2)CC1 [MMV688283] | 1.8 |
| COc1ccc(-c2nnc3ccc(-c4cccc(C(C)C)c4)cn23)cc1OC [MMV688313] | 1.1 |
| CC(=O)NCC1CN(c2ccc(-c3ccc(CNCc4cn[nH]n4)cc3)c(F)c2)C(=O)O1 (centres unmarked) [MMV688327] | 0.344 |
| CC(=O)N1CCN(c2ccc(Oc3ccc(Cl)cc3O)cc2)CC1 [MMV688330] | 1.8 |
| Nc1nc(N)c2c3c(sc2n1)CN(Cc1ccccc1)CC3 [MMV688345] | 2.8 |
| COC(=O)c1ccc(F)cc1NS(=O)(=O)c1cccc(-c2cnn(Cc3ccccc3)c2)c1 [MMV688350] | 1.5 |
| O=C1[C@@H](Oc2ccccc2)[C@@H](c2ccc(Cl)cc2)N1CCn1cnc2c(NCc3ccccc3)ncnc21 [MMV688352] | 0.212 |
| COc1ccc(C2=NN(C3CCCCCC3)C(=O)C2(C)C)cc1OCc1ccccn1 [MMV688360] | 1.5 |
| c1cc(C2=NCCN2)cc(-c2cc(-c3ccc(C4=NCCN4)cc3)no2)c1 [MMV688361] | 0.271 |
| CC(C)(C)OC(=O)N1CCC(Cn2nc(-c3cnc4ccccc4c3)c3c(N)ncnc32)CC1 [MMV688364] | 0.6 |
| NCCN(C(=O)c1ccc(Cl)cc1Cl)c1ccc(OCc2ccc(Cl)cc2)cc1 [MMV688371] | 1.7 |
| O=C(Nc1ccc(F)c(-c2nc3cc(-c4ccccc4)cnc3[nH]2)c1)N1CCCC1 [MMV688372] | 0.9 |
| COc1cc(C2=NCCN2)ccc1-c1cn(-c2cccc(C3=NCCN3)c2)nn1 [MMV688407, 4-[4-(4,5-dihydro-1H-imidazol-2-yl)-2-methoxyphenyl]-1-[3-(4,5-dihydro-1H-imidazol-2-yl)phenyl]triazole] | 8.0 |
| CC1=Nc2ccc(Cl)cc2C(c2ccccc2)N1CCNC(=O)CN(C)C (centres unmarked) [MMV688410] | 0.5 |
| Nc1ncnc2c1c(-c1cnc3ccccc3c1)nn2CC1CCNCC1 [MMV688411] | 2.1 |
| CO[C@@H]1CN(c2ccc(C#CC3(O)CN4CCC3CC4)c(Cc3ccccc3)n2)C[C@H]1O (some centres unmarked) [MMV688415] | 1.0 |
| CC(C)(C)OC(=O)N1CCN(c2nccc(-c3ccc(-c4ccc(Cl)cc4)s3)n2)CC1 [MMV688416] | 0.333 |

| Structure (SMILES) | Pathogen Box screen signal/noise ratio |
| --- | --- |
| CC(C)n1nc(-c2cc3c(Cl)cccc3[nH]2)c2c(N)ncnc21 [MMV688417] | 1.3 |
| Cn1ccnc1CNCCS(=O)(=O)c1cccc(Nc2ccc(-c3cccc(F)c3)cn2)c1 [MMV688466] | 0.0 |
| CCCCN(CCCC)c1c(C#N)cc(S(=O)(=O)Nc2ccccc2)cc1C#N [MMV688467] | 0.7 |
| Nc1ncnc2[nH]nc(Cc3cccc4ccccc34)c12 [MMV688469] | 0.357 |
| CS(=O)(=O)N1CCC(CCn2nc(Cc3cccc4ccccc34)c3c(N)ncnc32)CC1 [MMV688470] | 0.75 |
| CC(C(=O)Nc1ccc2oc(-c3ccncc3)nc2c1)c1ccccc1 (centres unmarked) [MMV688471] | 1.6 |
| CC(Oc1cccc(Cl)c1)C(=O)Nc1ccc2oc(-c3ccncc3)nc2c1 (centres unmarked) [MMV688472] | 0.7 |
| COc1cc(C2=NCCN2)ccc1-n1cc(-c2cccc(C3=NCCN3)c2)nn1 [MMV688474] | 0.217 |
| CC(=O)NCC1CN(c2ccc(-c3ccc(CO)cc3)c(F)c2)C(=O)O1 (centres unmarked) [MMV688508] | 0.8 |
| O=C(OCc1ccccc1)N1CCC(c2cc(-c3ccncc3)c(-c3ccc(F)cc3)[nH]2)CC1 [MMV688509] | 0.0833 |
| N=C(N)c1ccc(-c2cc(-c3ccccc3)on2)cc1 [MMV688514] | 1.1 |
| CC(C)(C)C(=O)N(CCCCCCN1C[C@H](O)[C@@H](O)[C@H](O)[C@H]1CO)C1CCCCCC1 [MMV688543] | 1.3 |
| COc1ccc(C2=NCCN2)cc1-c1cn(-c2cccc(C3=NCCN3)c2)nn1 [MMV688547] | 0.9 |
| CC(C)(C)n1nc(-c2ccccc2)c2c(N)ncnc21 [MMV688548] | 1.0 |
| CCc1ccccc1-n1c(C)cn2c3c(=O)n(C(C(=O)OC)C(C)C)c(=O)n(C)c3nc12 (centres unmarked) [MMV688550] | 0.222 |
| Cc1nn(C(=O)Nc2cccc(C(F)(F)F)c2)c(C)c1Sc1ncccn1 [MMV688552] | 0.8 |
| O=C(NCc1ccoc1)N1CCN(Cc2ccc3c(c2)OCO3)CC1 [MMV688553] | 0.8 |
| CNc1snc(C)c1C(=O)NCCOc1ccc(OC)cc1 [MMV688554] | 0.8 |
| O=C(NCc1ccco1)N1CCN(Cc2ccc(Cl)s2)CC1 [MMV688555] | 0.218 |
| NCC(c1cccs1)S(=O)(=O)c1ccccc1 (centres unmarked) [MMV688557] | 0.569 |
| CN1CCC(c2cc(-c3ccncc3)c(-c3ccc(F)cc3)[nH]2)CC1 [MMV688703] | 1.2 |
| Cc1cc2nc(NC(=O)C(C)(C)C)nc(Cl)c2n1Cc1ccc(Cl)cc1 [MMV688704] | 1.2 |
| CO/N=C(\C(=O)OC)c1ccccc1CO/N=C(\C)c1cccc(C(F)(F)F)c1 [MMV688754] | 1.2 |

— publication PMC9579956 (RSC Medicinal Chemistry, 2022)
